# Molecular target: T1, human recombinant Yes [a.a. 2–543 (end)] (Homo sapiens, UniProt P07947)
# T1 construct: human recombinant Yes [a.a; 2–543 (end)]; purchased BPS Bioscience 40488
# Assay: ADP-Glo kinase assay, inhibition rates of Yes phosphorylation activity (first and second screening)
# Type: biochemical
# Settings: first screening; mean of n = 4 wells; 10 μmol L−1 compound
# Outline: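 ADP-Glo luminescence measured inhibition of human recombinant Yes (a.a. 2–543) phosphorylation activity. In the first screen, each compound ran in 4 wells and inhibition rates were averaged. The second screen retested hits as compounds dissolved from fresh powder.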
# T1 sequence (P07947 2-543): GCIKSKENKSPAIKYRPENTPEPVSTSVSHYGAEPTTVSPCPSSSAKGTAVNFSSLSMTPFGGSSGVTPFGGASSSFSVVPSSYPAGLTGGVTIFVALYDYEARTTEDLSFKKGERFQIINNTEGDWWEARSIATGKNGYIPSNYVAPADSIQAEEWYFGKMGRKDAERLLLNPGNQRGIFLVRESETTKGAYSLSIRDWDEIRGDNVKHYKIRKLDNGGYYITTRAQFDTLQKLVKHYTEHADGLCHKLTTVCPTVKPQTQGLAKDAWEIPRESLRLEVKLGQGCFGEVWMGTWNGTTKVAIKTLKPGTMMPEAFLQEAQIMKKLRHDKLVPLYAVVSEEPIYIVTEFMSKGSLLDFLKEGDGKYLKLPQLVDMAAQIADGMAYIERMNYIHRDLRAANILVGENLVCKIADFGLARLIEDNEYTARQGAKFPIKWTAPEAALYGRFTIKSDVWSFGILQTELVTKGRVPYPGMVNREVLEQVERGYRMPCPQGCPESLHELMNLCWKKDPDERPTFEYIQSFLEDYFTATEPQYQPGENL
row,SMILES,First screening IR (inhibition rate) [%]
1,O=C(NCc1ccncc1)c1cnn(-c2ccc(Cl)cc2)c1C(F)(F)F [Compound Z94739043],6
2,COc1ccc(-c2cc(-c3cc4ccccc4o3)nc3c2cnn3C(C)C)cc1 [Compound Z94751514],3
3,O=C1Nc2ccccc2/C1=C\c1cnn(-c2ccccc2)c1 [Compound Z95045593],32
4,O=C1Nc2cc(Cl)ccc2/C1=C\c1cnn(-c2ccccc2)c1 [Compound Z95046696],4
5,O=C(O)/C(=C\c1cccc(C(F)(F)F)c1)Sc1nnc(-c2ccco2)o1 [Compound Z95207137],-11
6,CCCn1c(/C(Cl)=C/c2ccc(F)c(F)c2)nc2cc(S(=O)(=O)N3CCOCC3)ccc21 [Compound Z95254533],14
7,CC(C)C(NC(=O)c1ccc(CNC(N)=O)cc1)c1ccccc1 (centres unmarked) [Compound Z96018682],-1
8,O=C(Nc1ccccc1)C1CCN(C(=O)C2CCOCC2)CC1 [Compound Z96031302],1
9,CCN(CCCNC(=O)c1cn(-c2ccccc2)nc1-c1cccnc1)c1ccccc1 [Compound Z96041573],-8
10,COc1ccc(OC)c(C2CCCN2C(=O)CSc2nnc(Nc3ccccc3C)s2)c1 (centres unmarked) [Compound Z96342510],9
11,CCCc1cc(=O)oc2cc(OCC(=O)N(C)CC3COc4ccccc4O3)ccc12 (centres unmarked) [Compound Z97092537],30
12,COc1ccc(-n2c(=O)c3ccccc3n3c(SCC(=O)NC(C)CCCC(C)C)nnc23)cc1 (centres unmarked) [Compound Z97290306],-3
13,CCN(Cc1ccc2c(c1)OCCO2)C(=O)CSc1nnc(C(C)N(C)C)n1-c1ccc(F)cc1 (centres unmarked) [Compound Z97565837],15
14,O=C(CSc1nnc(-c2cccnc2)n1C1CC1)c1ccc2c(c1)OCCCO2 [Compound Z98268667],5
15,COc1ccc(C(=O)N[C@@H]2C(=O)Nc3c(c(C)nn3C)[C@H]2c2cccc(C(F)(F)F)c2)cc1OC [Compound Z98361471],17
16,Cc1ccc(-n2c(SCC(=O)c3cc(C)n(CC4CCCO4)c3C)nnc2N2CCOCC2)cc1 (centres unmarked) [Compound Z98369603],22
17,Cc1ccc(-n2c(SCC(=O)c3ccc(NC(=O)C(C)(C)C)cc3)nnc2N2CCOCC2)cc1 [Compound Z98370329],11
18,O=C(O)c1cc(-c2cccnc2)nc2c1cnn2Cc1cccnc1 [Compound Z98638708],13
19,Cc1nnc(SCC(=O)c2cc3cc(Cl)ccc3o2)n1C1CC1 [Compound Z98941608],10
20,COc1ccccc1NC(=O)c1ccc(NC(=O)COc2ccc(-c3nc(C)cs3)cc2)cc1 [Compound Z99004386],5
21,O=C(Cc1csc(-c2ccsc2)n1)Nc1ccc2nc(N3CCOCC3)sc2c1 [Compound Z99468124],8
22,Nc1nc(N)nc(CSCc2ccc(-c3ccccc3)cc2)n1 [Compound Z99552008],-6
23,CSc1ccc(CSCc2nc(N)nc(Nc3ccccc3)n2)cc1 [Compound Z99558919],-15
24,O=C(Nc1ccc(S(=O)(=O)Nc2nccs2)cc1)c1cnn(Cc2ccccc2)c1 [Compound Z100622740],61
25,CNS(=O)(=O)c1ccc(NC(=O)c2cn(-c3ccccc3)nc2-c2cccnc2)cc1 [Compound Z101840388],11
26,O=C(NCCNc1ncc(C(F)(F)F)cc1Cl)c1ccc2nc[nH]c2c1 [Compound Z101998542],25

# Reference: PMC5607274, “An iterative compound screening contest method for identifying target protein inhibitors using the tyrosine-protein kinase Yes” (Scientific Reports, 2017)
